Measured values as given in ChEMBL document CHEMBL4507310, “Data for DCP probe A-1211212” (2021).

Columns and labels:
[1] = target: T1, Alpha-1B adrenergic receptor (Homo sapiens) (UniProt P35368); details: Compound concentration 10.0 uM
T1 sequence (whole entry): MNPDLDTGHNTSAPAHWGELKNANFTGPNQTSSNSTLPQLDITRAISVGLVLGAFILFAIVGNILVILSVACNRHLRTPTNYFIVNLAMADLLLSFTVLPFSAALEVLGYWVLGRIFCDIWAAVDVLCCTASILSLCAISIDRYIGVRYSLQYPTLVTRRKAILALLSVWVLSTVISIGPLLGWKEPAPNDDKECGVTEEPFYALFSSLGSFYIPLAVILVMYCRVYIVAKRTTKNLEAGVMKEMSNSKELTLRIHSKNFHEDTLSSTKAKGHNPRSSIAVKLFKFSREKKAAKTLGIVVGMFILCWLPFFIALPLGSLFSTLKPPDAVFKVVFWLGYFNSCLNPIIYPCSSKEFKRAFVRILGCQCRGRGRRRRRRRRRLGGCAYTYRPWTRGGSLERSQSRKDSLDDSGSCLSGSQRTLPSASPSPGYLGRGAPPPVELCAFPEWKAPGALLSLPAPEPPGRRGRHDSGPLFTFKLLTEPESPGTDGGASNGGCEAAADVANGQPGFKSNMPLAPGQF

[2] = target: Serine/threonine-protein kinase ULK1 (Homo sapiens) (UniProt O75385); details: Compound concentration 1000.0 nM
Sequence of Serine/threonine-protein kinase ULK1 (Homo sapiens) (O75385 whole entry): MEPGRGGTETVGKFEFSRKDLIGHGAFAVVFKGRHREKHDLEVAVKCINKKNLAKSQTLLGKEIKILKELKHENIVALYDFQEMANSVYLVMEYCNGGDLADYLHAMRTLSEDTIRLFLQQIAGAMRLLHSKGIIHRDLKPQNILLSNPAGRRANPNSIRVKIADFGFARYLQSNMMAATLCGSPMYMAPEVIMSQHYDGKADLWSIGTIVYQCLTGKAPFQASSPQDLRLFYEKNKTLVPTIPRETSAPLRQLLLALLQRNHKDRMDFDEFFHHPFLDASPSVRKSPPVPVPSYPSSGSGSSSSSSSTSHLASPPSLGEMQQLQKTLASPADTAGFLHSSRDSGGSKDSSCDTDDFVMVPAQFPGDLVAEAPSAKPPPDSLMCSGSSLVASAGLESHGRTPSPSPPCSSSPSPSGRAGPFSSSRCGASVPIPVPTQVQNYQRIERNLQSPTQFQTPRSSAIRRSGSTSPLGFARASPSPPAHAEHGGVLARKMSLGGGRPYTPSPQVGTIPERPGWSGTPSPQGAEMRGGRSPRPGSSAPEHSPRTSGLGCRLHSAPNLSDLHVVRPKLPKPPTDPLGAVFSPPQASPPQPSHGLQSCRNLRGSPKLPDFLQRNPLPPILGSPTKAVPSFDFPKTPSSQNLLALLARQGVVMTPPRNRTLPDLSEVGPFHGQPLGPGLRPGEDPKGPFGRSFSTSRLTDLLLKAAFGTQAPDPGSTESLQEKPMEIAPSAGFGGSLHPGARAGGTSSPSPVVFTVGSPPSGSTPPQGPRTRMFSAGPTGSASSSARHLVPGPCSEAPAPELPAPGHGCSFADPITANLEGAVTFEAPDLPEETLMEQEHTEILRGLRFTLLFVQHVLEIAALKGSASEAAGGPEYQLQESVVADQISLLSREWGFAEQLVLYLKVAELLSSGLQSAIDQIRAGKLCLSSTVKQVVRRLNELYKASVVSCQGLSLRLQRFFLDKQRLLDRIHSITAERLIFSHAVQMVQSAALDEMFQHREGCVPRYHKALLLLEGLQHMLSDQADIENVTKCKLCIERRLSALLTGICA

[3] = target: Death-associated protein kinase 2 (Homo sapiens) (UniProt Q9UIK4); details: Compound concentration 1000.0 nM
[4] = target: Serine/threonine-protein kinase PLK2 (Homo sapiens) (UniProt Q9NYY3); details: Compound concentration 1000.0 nM
[5] = target: Uncharacterized serine/threonine-protein kinase SBK3 (Homo sapiens) (UniProt P0C264); details: Compound concentration 1000.0 nM
[6] = target: Serine/threonine-protein kinase Chk1 (Homo sapiens) (UniProt O14757); details: Compound concentration 1000.0 nM
Sequence of Serine/threonine-protein kinase Chk1 (Homo sapiens) (O14757 whole entry): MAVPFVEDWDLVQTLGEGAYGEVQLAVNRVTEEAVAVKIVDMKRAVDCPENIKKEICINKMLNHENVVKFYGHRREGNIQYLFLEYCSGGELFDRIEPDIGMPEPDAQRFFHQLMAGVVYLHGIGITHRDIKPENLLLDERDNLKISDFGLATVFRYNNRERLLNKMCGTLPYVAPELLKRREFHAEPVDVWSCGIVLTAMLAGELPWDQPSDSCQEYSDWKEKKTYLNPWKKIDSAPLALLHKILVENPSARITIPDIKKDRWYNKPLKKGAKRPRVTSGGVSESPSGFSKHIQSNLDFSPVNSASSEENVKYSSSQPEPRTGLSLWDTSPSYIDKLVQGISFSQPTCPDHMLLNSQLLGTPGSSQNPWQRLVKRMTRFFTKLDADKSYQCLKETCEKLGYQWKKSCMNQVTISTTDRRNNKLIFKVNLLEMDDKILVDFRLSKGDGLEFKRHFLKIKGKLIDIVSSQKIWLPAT

[7] = target: Alpha-1A adrenergic receptor (Homo sapiens) (UniProt P35348); experiment: Alpha1A (h) Eurofins-Cerep binding assay; design: ligand concentration 0.1 nM; details: filed as antagonist, Compound concentration 10.0 uM
[8] = system: Epidermal growth factor receptor (Homo sapiens), P00533 [L858R]; details: Compound concentration 1000.0 nM
[9] = system: Tyrosine-protein kinase ABL1 (Homo sapiens), P00519 [F317I]; details: Compound concentration 1000.0 nM
[10] = target: Receptor-interacting serine/threonine-protein kinase 1 (Homo sapiens) (UniProt Q13546); details: Compound concentration 1000.0 nM
[11] = target: T2, 5-hydroxytryptamine receptor 2C (Homo sapiens) (UniProt P28335); experiment: 5-HT2C (h) Eurofins-Cerep binding assay; design: ligand concentration 1 nM; details: filed as antagonist, Compound concentration 10.0 uM
T2 sequence (whole entry): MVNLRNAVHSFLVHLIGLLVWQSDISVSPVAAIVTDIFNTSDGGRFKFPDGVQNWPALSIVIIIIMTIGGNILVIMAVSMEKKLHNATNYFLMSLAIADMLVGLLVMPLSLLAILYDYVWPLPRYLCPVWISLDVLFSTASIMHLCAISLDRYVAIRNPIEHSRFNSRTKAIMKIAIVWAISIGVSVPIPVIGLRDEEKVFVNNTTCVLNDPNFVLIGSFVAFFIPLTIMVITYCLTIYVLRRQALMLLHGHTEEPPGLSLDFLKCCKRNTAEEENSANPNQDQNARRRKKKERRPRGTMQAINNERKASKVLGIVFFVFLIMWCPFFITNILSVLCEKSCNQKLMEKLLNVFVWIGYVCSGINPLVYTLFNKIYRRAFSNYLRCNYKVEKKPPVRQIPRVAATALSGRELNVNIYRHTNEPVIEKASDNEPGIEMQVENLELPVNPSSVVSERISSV

[12] = target: Casein kinase I isoform gamma-2 (Homo sapiens) (UniProt P78368); details: Compound concentration 1000.0 nM
Sequence of Casein kinase I isoform gamma-2 (Homo sapiens) (P78368 whole entry, looked up, canonical isoform): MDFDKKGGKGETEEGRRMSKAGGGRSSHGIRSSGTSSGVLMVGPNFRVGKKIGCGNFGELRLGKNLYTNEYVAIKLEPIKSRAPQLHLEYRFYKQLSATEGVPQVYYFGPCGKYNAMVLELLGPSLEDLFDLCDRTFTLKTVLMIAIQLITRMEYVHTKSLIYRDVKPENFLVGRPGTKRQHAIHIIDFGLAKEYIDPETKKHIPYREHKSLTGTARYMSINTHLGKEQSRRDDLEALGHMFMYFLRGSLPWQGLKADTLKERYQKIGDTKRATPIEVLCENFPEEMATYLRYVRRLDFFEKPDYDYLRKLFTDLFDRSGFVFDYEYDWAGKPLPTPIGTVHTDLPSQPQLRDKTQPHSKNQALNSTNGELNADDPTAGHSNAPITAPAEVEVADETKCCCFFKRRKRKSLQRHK

[13] = system: Mast/stem cell growth factor receptor Kit (Homo sapiens), P10721 [V559D,V654A]; details: Compound concentration 1000.0 nM
[14] = target: Serine/threonine-protein kinase haspin (Homo sapiens) (UniProt Q8TF76); details: Compound concentration 1000.0 nM
[15] = target: Tyrosine-protein kinase FRK (Homo sapiens) (UniProt P42685); details: Compound concentration 1000.0 nM
Sequence of Tyrosine-protein kinase FRK (Homo sapiens) (P42685 whole entry): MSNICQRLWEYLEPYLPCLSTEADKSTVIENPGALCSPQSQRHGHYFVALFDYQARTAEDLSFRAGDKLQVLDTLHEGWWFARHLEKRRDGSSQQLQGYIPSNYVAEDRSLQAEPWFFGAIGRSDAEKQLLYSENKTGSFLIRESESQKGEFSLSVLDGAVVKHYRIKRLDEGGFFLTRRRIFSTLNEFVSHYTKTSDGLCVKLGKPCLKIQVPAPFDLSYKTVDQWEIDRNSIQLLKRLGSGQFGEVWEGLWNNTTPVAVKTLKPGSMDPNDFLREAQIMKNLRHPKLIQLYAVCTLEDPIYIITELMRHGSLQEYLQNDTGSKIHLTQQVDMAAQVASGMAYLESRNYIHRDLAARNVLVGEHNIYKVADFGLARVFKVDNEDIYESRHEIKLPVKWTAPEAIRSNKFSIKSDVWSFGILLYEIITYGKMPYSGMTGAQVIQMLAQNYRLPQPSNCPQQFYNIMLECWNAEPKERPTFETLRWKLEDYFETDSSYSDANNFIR

[16] = target: Interleukin-1 receptor-associated kinase 1 (Homo sapiens) (UniProt P51617); details: Compound concentration 1000.0 nM
[17] = target: Serine/threonine-protein kinase 36 (Homo sapiens) (UniProt Q9NRP7); details: Compound concentration 1000.0 nM
Sequence of Serine/threonine-protein kinase 36 (Homo sapiens) (Q9NRP7 whole entry): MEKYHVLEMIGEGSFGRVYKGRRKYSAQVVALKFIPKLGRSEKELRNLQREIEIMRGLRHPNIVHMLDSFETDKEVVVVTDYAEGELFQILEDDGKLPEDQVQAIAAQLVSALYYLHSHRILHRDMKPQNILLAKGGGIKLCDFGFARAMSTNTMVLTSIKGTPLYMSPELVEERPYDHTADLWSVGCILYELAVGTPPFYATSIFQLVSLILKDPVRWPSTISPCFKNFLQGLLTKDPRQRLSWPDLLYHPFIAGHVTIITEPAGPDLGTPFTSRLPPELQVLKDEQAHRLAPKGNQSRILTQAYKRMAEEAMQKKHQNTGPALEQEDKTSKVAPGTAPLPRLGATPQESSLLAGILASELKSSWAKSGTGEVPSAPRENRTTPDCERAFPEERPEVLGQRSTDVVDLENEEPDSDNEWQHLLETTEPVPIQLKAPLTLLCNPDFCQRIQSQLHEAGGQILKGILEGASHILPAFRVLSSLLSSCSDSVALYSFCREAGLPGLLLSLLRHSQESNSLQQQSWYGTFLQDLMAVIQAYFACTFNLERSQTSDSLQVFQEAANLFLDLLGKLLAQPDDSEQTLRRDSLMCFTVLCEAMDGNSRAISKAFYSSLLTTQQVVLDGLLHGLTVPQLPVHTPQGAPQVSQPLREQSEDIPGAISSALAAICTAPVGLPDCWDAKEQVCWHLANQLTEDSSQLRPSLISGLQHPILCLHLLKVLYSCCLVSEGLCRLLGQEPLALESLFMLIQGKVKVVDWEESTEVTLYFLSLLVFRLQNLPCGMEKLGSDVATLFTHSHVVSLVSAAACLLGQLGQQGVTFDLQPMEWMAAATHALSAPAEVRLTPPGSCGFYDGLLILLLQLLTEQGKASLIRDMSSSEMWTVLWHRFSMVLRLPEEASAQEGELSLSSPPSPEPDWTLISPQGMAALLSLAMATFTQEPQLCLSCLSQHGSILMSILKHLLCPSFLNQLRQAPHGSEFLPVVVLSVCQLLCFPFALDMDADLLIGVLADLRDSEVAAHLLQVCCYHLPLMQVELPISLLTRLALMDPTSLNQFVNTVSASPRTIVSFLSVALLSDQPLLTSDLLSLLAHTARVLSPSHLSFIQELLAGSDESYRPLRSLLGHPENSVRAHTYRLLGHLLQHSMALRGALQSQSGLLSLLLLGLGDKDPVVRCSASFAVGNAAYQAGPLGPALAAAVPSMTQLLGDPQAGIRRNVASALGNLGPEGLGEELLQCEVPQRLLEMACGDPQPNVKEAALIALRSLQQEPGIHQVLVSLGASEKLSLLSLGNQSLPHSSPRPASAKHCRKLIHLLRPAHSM

[18] = target: Alpha-2C adrenergic receptor (Homo sapiens) (UniProt P18825); details: Compound concentration 10.0 uM
[19] = target: D(1A) dopamine receptor (Homo sapiens) (UniProt P21728); experiment: D1 (h) Eurofins-Cerep binding assay; design: ligand concentration 0.3 nM; details: filed as antagonist, Compound concentration 10.0 uM
[20] = target: Serine/threonine-protein kinase Nek11 (Homo sapiens) (UniProt Q8NG66); details: Compound concentration 1000.0 nM
[21] = target: Vasoactive intestinal polypeptide receptor 1 (Homo sapiens) (UniProt P32241); experiment: VPAC1 (VIP1) (h) Eurofins-Cerep binding assay; design: ligand concentration 0.04 nM; details: filed as agonist, Compound concentration 10.0 uM
[22] = target: Sodium-dependent noradrenaline transporter (Homo sapiens) (UniProt P23975); experiment: norepinephrine transporter (h) Eurofins-Cerep binding assay; design: ligand concentration 1 nM; details: filed as antagonist, Compound concentration 10.0 uM
Sequence of Sodium-dependent noradrenaline transporter (Homo sapiens) (P23975 whole entry): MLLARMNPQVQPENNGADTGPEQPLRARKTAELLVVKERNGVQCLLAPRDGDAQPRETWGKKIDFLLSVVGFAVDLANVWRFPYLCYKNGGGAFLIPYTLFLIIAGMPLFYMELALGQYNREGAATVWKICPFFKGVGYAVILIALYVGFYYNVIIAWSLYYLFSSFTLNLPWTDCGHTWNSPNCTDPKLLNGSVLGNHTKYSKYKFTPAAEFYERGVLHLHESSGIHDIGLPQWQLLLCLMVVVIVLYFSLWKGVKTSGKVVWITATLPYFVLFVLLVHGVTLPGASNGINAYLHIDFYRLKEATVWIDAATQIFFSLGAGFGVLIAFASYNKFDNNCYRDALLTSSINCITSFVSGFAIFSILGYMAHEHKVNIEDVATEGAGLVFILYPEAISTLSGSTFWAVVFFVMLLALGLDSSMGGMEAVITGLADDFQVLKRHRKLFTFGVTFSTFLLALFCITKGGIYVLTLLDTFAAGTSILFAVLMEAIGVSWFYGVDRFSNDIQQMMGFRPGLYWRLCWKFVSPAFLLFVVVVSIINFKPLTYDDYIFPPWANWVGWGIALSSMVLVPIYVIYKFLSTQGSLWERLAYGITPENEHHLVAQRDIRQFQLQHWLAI

[23] = target: Receptor tyrosine-protein kinase erbB-4 (Homo sapiens) (UniProt Q15303); details: Compound concentration 1000.0 nM
[24] = target: Serine/threonine-protein kinase SIK3 (Homo sapiens) (UniProt Q9Y2K2); details: Compound concentration 1000.0 nM
[25] = target: Serine/threonine-protein kinase LATS1 (Homo sapiens) (UniProt O95835); details: Compound concentration 1000.0 nM
[26] = target: MAP kinase-interacting serine/threonine-protein kinase 1 (Homo sapiens) (UniProt Q9BUB5); details: Compound concentration 1000.0 nM
Sequence of MAP kinase-interacting serine/threonine-protein kinase 1 (Homo sapiens) (Q9BUB5 whole entry, looked up): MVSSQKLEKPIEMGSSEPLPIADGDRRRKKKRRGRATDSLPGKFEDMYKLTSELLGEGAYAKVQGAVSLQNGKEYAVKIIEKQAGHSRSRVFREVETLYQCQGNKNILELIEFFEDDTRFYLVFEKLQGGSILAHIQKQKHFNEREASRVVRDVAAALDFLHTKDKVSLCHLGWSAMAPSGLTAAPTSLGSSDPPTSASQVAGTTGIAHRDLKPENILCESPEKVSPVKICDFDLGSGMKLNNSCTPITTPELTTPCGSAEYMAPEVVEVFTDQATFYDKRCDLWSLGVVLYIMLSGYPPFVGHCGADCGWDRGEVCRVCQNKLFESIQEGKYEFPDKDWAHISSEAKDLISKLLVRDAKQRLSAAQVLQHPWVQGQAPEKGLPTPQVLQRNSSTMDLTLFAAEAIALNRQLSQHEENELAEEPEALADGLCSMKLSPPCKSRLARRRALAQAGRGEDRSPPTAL

SMILES	inhibition [1] [%]	residual activity [2] [%]	residual activity [3] [%]	residual activity [4] [%]	residual activity [5] [%]	residual activity [6] [%]	% Inhibition of Control Specific Binding (Mean n=2) [7] [%]	residual activity [8] [%]	residual activity [9] [%]	residual activity [10] [%]	% Inhibition of Control Specific Binding (Mean n=2) [11] [%]	residual activity [12] [%]	residual activity [13] [%]	residual activity [14] [%]	residual activity [15] [%]	residual activity [16] [%]	residual activity [17] [%]	inhibition [18] [%]	% Inhibition of Control Specific Binding (Mean n=2) [19] [%]	residual activity [20] [%]	further results
CO[C@H]1CC[C@H](CNc2ccc(S(=O)(=O)NC(=O)c3ccc(N4CCN(CC5=C(c6ccc(Cl)cc6)CC(C)(C)CC5)CC4)cc3Oc3cnc4[nH]ccc4c3)cc2[N+](=O)[O-])CC1 [A-1211212]	1.2	82	75	100	83	90	-3.8	60	100	77	-4.1	80	93	88	100	96	71	15.6	0.7	100	% Inhibition of Control Specific Binding (Mean n=2) [21]: -26.6%; % Inhibition of Control Specific Binding (Mean n=2) [22]: 16.2%; residual activity [23]: 80%; residual activity [24]: 89%; residual activity [25]: 87%; residual activity [26]: 90%
O=C(NS(=O)(=O)c1ccc(NCC2CCOCC2)c([N+](=O)[O-])c1)c1ccc(N2CCN(Cc3ccc(C(F)(F)F)cc3-c3ccc(Cl)cc3)CC2)cc1Oc1cnc2[nH]ccc2c1 [A-1210227]	12.3	96	85	100	100	100	-5.1	90	87	99	3.7	100	100	85	100	96	88	12.7	6.4	97	% Inhibition of Control Specific Binding (Mean n=2) [21]: -57.7%; % Inhibition of Control Specific Binding (Mean n=2) [22]: -14.5%; residual activity [23]: 100%; residual activity [24]: 76%; residual activity [25]: 100%; residual activity [26]: 99%
